Data from article PMC7515950, “Physiologically based pharmacokinetic modeling to assess metabolic drug–drug interaction risks and inform the drug label for fedratinib” (Cancer Chemotherapy and Pharmacology, 2020).
Where “and” joins values, the source holds several entries; their conditions need not be identical. Identical values can stand only once. Like-named read-outs stand apart in the source and are kept apart here.

Experiments:
[1] = Compartmental PK modeling of single-dose 500 mg data in healthy volunteers; type: in vivo, human
From the text: The PBPK model of fedratinib was constructed in Simcyp® by integrating available in vitro and in vivo information, including physiochemical parameters, permeability and blood binding parameters, enzyme and transporter inhibition parameters, and human PK parameters estimated from clinical PK data. A stepwise “middle-out” approach was applied to estimate the human PBPK parameters for fedratinib in Simcyp®. First, the temporal profiles of mean plasma concentration of fedratinib were collected from the clinical studies in healthy volunteers (HVs) administered single doses of 500 mg fedratinib. Then the preliminary human oral PK parameters were estimated as described in Supplemental Materials SM2 and SM3.
The minimal PBPK model within Simcyp® was used to describe the distribution of fedratinib. The Vss, Vsac, and Q values were estimated using the compartmental PK modeling approach (see Table 3 in Supplemental Material SM 3) and further refined within Simcyp® based on the model-predicted bioavailability (F) using the following equations: […]
The estimated values of Vss, Vsac, and Q were directly supplied to the Distribution module within Simcyp® without further modifications. Note that since the intravenous (IV) PK data are not available in humans for fedratinib, the distribution parameters include Vss estimated from the oral human PK data may not be accurate and will be subject to further verification if the human IV PK data of fedratinib or other relevant clinical information are available in the future.
The temporal profiles of mean plasma concentration of fedratinib were collected from the clinical studies (TDU12620, BDR12462, FED12258, and ALI13451) conducted in healthy volunteers (HVs) administered with single doses of 500 mg fedratinib. The compartmental PK modeling was conducted in Phoenix®/NLME (V7, Certara, Princeton, NJ). A two-compartment PK structural model with the additive error model was identified to successfully describe the PK data. The “naïve pooled” algorithm provided in Phoenix was used for parameter estimation.

CYP2C9 = target: T1, CYP2C9 (Homo sapiens, UniProt P11712); test: CYP inhibition in human liver microsomes (MIH0887), CYP2C9; type: in vitro ADME; settings: HLM, apparent Ki, reversible inhibition
T1 construct: from tissue; host or cells: human liver microsomes
T1 sequence (P11712 whole entry): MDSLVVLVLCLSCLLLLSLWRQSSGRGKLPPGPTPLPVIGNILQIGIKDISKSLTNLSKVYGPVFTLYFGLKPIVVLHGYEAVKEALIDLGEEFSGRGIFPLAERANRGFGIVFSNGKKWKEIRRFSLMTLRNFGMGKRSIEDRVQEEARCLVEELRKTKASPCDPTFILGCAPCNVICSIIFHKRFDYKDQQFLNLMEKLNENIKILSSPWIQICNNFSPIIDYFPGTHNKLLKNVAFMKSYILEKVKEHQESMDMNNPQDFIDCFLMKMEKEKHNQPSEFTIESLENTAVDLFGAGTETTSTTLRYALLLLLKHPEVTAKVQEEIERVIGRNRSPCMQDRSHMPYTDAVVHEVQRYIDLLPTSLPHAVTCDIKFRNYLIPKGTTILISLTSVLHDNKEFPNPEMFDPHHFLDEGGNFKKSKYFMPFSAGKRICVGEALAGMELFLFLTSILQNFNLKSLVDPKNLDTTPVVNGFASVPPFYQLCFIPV
Procedure: (§1) The CYP enzyme reverse inhibition and mechanism-based inhibition (MBI) parameters were estimated in the human liver microsome (HLM) incubation in vitro studies. The reported reversible inhibition parameter (i.e., apparent Ki) values for CYP2C8, CYP2C9, and CYP2D6, along with the MBI parameters (i.e., KI or Kapp and kinact) for CYP2C19 and CYP3A4, were supplied to the PBPK DDI model (see Table 2).

[2] = Human 14C mass balance and metabolic profiling (BEX12257, MEH0082); type: in vivo; settings: for fa (fraction of absorbed dose): estimated from mass balance and metabolic profiling, BEX12257 and MEH0082; for CL renal: estimated from BEX12257, MEH0082 with CL/F of 33.3 L/h, read-out: CLR (renal clearance) (converted)
Procedure: The first-order absorption ka value was estimated to be ~0.22 h^-1 based on compartmental modeling of mean PK data obtained from healthy subjects given single doses of 500 mg fedratinib (see Table 1 in Supplemental Material SM 2). The fa value was estimated based on data obtained from the mass balance and metabolic profiling studies conducted in healthy subjects. By combining the estimated excretion percentages of the parent compound in urine, feces, and bile, the unabsorbed dose was estimated to be ~35% and thus fraction of absorption (fa) was estimated to be ~0.65 (see Figure 2 and “Excretion Parameters” subsection).
Following the normalization, excretion percentages of fedratinib were estimated to be ~5% and ~37% of the administered dose in urine and feces, respectively.

[3] = cited from earlier work
[4] = set-up: method as in PMID 32248324; settings: healthy subjects, observation, cited from earlier work; for AUC GM Ratio (90% CI): 300 mg single dose with vs without ketoconazole 200 mg BID, AUCinf
CYP2C8 = target: T2, CYP2C8 (Homo sapiens, UniProt P10632); test: CYP inhibition in human liver microsomes (MIH0887), CYP2C8; type: in vitro ADME; settings: HLM, apparent Ki, reversible inhibition
T2 construct: from tissue; host or cells: human liver microsomes
T2 sequence (P10632 1-490): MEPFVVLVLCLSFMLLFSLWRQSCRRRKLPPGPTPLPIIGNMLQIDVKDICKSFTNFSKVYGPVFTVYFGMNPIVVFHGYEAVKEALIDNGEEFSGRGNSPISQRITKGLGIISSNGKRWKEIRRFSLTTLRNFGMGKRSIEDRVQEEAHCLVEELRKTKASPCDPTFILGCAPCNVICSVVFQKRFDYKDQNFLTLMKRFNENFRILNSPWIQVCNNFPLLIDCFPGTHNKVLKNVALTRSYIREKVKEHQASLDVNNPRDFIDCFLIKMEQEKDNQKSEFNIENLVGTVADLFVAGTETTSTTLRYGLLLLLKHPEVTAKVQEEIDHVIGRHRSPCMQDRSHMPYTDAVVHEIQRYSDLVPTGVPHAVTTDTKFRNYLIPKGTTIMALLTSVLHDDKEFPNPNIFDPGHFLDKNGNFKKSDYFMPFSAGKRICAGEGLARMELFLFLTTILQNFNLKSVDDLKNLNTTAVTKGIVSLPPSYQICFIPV
Procedure: as §1

[5] = healthy subjects, single doses of 500 mg, two-compartment model
[6] = human 14C-mass balance, over 0-192/240h
[7] = normalized by total recovered radioactivity
[8] = 300 mg QD, MF patients, Day 1, observation, GM
[9] = 300 mg QD, MF patients, Day 1, observation, Mean (SD)
[10] = 300 mg QD, MF patients, steady state, observation, GM
[11] = 300 mg QD, MF patients, steady state, observation, Mean (SD)
[12] = 400 mg QD, MF patients, Day 1, observation, GM
[13] = 400 mg QD, MF patients, Day 1, observation, Mean (SD)
[14] = 400 mg QD, MF patients, steady state, observation, GM
[15] = 400 mg QD, MF patients, steady state, observation, Mean (SD)
[16] = 500 mg QD, MF patients, Day 1, observation, GM
[17] = 500 mg QD, MF patients, Day 1, observation, Mean (SD)
[18] = 500 mg QD, MF patients, steady state, observation, GM
[19] = 500 mg QD, MF patients, steady state, observation, Mean (SD)
[20] = clinical observation in MF patients
[21] = 300 mg single dose + ketoconazole 200 mg BID, GM
[22] = 300 mg single dose + ketoconazole 200 mg BID, Mean (SD)
[23] = 300 mg single dose alone, Mean (SD)

For `Cc1cnc(Nc2ccc(OCCN3CCCC3)cc2)nc1Nc1cccc(S(=O)(=O)NC(C)(C)C)c1` [Fedratinib], the ka ([1]; Simcyp input) was 0.220 h⁻¹, the “Q (inter-compartment clearance)” value ([1]; from compartmental modeling, assuming F ~0.36) was ~ 11 L/h and the Vsac ([1]; from compartmental modeling, assuming F ~0.36 and body weight ~81 kg) was 3.5 L/kg. The Vsac ([1]; from compartmental modeling, assuming F ~0.36 and body weight ~81 kg, listed as fedratinib) was 3.5 L/kg, the “ka (first-order absorption constant)” value ([1]; healthy subjects, single doses of 500 mg) was 0.22 h⁻¹ and 0.221 h⁻¹ and the CL2/F [1, 5] was 30.8 L/h. For the same compound, the CL/F [1, 5] was 27.2 L/h, the V2/F [1, 5] was 797 L and the V/F [1, 5] was 107 L. For the same compound, the “ka (first-order absorption constant)” value ([1]; healthy subjects, single doses of 500 mg, listed as fedratinib) was ~ 0.22 h^-1, the Vd ([1]; human, plasma, oral, 500 mg, from compartmental modeling, assuming F ~0.36 and body weight ~81 kg, read-out: Vss) was ~4.1 L/kg and the Ki (CYP2C9) was 26.1 µM. The unabsorbed dose ([2]; estimated from excretion of parent in urine, feces and bile) was ~ 35%, the “fa (fraction of absorbed dose)” value [2] was 0.65 and the “fa (fraction of absorbed dose)” value ([2]; listed as fedratinib) was 0.650. The “parent compound in feces, percent of administered dose” value [2, 6] was 23.3%, the “parent compound in urine, percent of administered dose” value [2, 6] was 2.9% and the blood plasma ratio ([2]; human, blood and plasma, oral, Study BEX12257, read-out: B/P (blood/plasma concentration ratio)) was 0.7. For the same compound, the CL renal ([2]; human, in vivo, oral) was ~27.8 mL/min, the CL renal ([2]; human, urine, oral) was 27.8 mL/min and the “excretion percentage of fedratinib in feces, normalized” value [2, 7] was ~ 37%. The “excretion percentage of fedratinib in urine, normalized” value [2, 7] was ~ 5%, the “total percent activity of administered dose” value ([2]; over 0-192/240h) was 62.7% and the “AUC (AUCτ)” value [3, 8] was 7020 ng·h/mL. For the same compound, the Cmax [3, 8] was 1070 ng/mL, the “AUC (AUCτ)” value [3, 9] was 9460 (7770) ng/mL·h and the Cmax [3, 9] was 1380 (1060) ng/mL. For the same compound, the “AUC (AUCτ)” value [3, 10] was 22400 ng·h/mL, the Cmax [3, 10] was 1530 ng/mL and the “AUC (AUCτ)” value [3, 11] was 25300 (14100) ng/mL·h. For the same compound, the Cmax [3, 11] was 1800 (1120) ng/mL, the “AUC (AUCτ)” value [3, 12] was 9130 ng·h/mL and the Cmax [3, 12] was 1290 ng/mL. For the same compound, the “AUC (AUCτ)” value [3, 13] was 9610 (3450) ng/mL·h, the Cmax [3, 13] was 1430 (754) ng/mL and the “AUC (AUCτ)” value [3, 14] was 26900 ng·h/mL. For the same compound, the Cmax [3, 14] was 1800 ng/mL, the “AUC (AUCτ)” value [3, 15] was 29100 (13500) ng/mL·h and the Cmax [3, 15] was 2020 (1250) ng/mL. The “AUC (AUCτ)” value [3, 16] was 9980 ng·h/mL, the Cmax [3, 16] was 1270 ng/mL and the “AUC (AUCτ)” value [3, 17] was 11300 (6060) ng/mL·h. For the same compound, the Cmax [3, 17] was 1420 (710) ng/mL, the “AUC (AUCτ)” value [3, 18] was 38700 ng·h/mL and the Cmax [3, 18] was 2540 ng/mL. The “AUC (AUCτ)” value [3, 19] was 44500 (24900) ng/mL·h, the Cmax [3, 19] was 2830 (1370) ng/mL and the “accumulation ratio, AUC” value ([3]; Study ARD11936 500 mg QD, MF patients, observed) was 3.9. For the same compound, the “accumulation ratio, AUC” value [3, 20] was 2.9–3.2, the “accumulation ratio, Cmax” value [3, 20] was 1.4–2.0 and the “AUC (AUCinf)” value [4, 21] was 25000 ng·h/mL. The Cmax [4, 21] was 741 ng/mL, the “AUC (AUCinf)” value [4, 22] was 26,800 (10,600) ng/mL·h and the Cmax [4, 22] was 812 (374) ng/mL. For the same compound, the “AUC (AUCinf)” value ([4]; 300 mg single dose alone, GM) was 6460 ng·h/mL, the Cmax ([4]; 300 mg single dose alone, GM) was 379 ng/mL and the “AUC (AUCinf)” value [4, 23] was 7440 (4060) ng/mL·h. For the same compound, the Cmax [4, 23] was 444 (262) ng/mL, the “AUC GM Ratio (90% CI)” value [4] was 3.06 (2.46–3.80) and the “AUC GM Ratio (90% CI)” value ([4]; listed as fedratinib) was 3.06. For the same compound, the Ki (CYP2C8) was 50.4 µM.
